For this test, the target named is Recombinant GST-Tie2 (Homo sapiens, UniProt Q02763). Description: Tie2 fluorescence polarization kinase activity assay (TIE2-FP). In kind it is biochemical. Particulars: 200 μM ATP, activated enzyme; read-out: TIE2-FP pIC50 (converted). The protocol:
Tie2 Fluorescence Polarization Kinase Activity Assay (TIE2-FP) Activation of Recombinant Tie2 Activation: Recombinant GST-Tie2 is activated by incubating the enzyme in 20 mM Tris-HCl, pH7.5, 12 mM MgCl2, 100 mM NaCl, 20 μM sodium vanidate, 1 mM DTT and 300 μM ATP at room temperature for 2 hours. The activation mixture is then passed through a NAP-25 desalting column (Pharmacia Biotech cat. no. 17-0852-02) to remove the free ATP. The activated enzyme is stored as aliquots at−80° C. in 20mM Tris-HCl, pH7.5 and 100 mM NaCl. Assay Conditions: The final assay conditions are 50 mM HEPES, pH7.5, 5% DMSO (when screening compounds), 200 μM ATP, 5mM MgCl2, 1 mM DTT, 50 μM sodium vanidate, 1 nM activated enzyme, and 200 μM peptide. IC50's of compounds are measured under subsaturating ATP (200 μM) and varing concentrations of activated Tie2 and peptide substrate (RFWKYEFWR-OH; MW 1873 Da, TFA salt). Panvera Anti-phosphotyrosine antibody (Cat#P2840) and PTK Green Tracer (Cat#P2842) are used to detect the phosphorylated peptide. Polarization is measured on a TECAN Polarion in 138-second cycles for 30 minutes at room temperature. IC50's are then determined from the % polarization using normal calculation methods. The IC50 values are converted to pIC50 values, i.e.,−log IC50 in Molar concentration.

Structures are written as SMILES. A value given as a limit tells only on which side of the number the result lay.

Recombinant GST-Tie2, sequence (Q02763 23-1124): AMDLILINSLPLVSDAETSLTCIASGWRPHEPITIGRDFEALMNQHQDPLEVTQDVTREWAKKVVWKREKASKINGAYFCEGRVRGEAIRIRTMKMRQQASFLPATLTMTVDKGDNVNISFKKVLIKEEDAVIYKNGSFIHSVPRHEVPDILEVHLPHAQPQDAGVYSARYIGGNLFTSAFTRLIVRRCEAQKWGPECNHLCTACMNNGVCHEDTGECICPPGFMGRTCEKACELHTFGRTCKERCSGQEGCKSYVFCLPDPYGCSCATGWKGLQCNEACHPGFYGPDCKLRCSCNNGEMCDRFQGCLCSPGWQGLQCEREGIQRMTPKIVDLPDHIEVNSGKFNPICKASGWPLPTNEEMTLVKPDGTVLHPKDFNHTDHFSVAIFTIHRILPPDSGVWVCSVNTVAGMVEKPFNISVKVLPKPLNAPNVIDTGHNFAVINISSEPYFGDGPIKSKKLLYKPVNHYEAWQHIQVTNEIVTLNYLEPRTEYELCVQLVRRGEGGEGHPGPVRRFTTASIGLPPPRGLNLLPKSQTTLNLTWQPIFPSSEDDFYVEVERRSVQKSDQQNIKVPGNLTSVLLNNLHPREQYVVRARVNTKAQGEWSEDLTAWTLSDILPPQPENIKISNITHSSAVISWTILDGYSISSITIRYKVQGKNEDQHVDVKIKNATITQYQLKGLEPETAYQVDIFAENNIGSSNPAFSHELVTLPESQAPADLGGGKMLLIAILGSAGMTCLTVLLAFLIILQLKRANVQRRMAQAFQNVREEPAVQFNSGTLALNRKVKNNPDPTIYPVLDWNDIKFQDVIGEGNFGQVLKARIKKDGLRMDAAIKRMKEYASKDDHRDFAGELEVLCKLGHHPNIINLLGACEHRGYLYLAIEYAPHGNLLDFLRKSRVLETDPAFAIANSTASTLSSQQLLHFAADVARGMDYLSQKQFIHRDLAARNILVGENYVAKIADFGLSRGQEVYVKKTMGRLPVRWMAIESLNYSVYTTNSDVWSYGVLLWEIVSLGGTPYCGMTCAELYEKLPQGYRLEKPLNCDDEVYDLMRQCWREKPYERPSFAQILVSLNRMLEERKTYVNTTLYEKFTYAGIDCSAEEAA

Consider `Cn1nc(-c2ccc(NC(=O)Nc3cc(C(F)(F)F)ccc3F)cc2)c(C(N)=O)c1N` [Example 2, 5-Amino-3-{4-[3-(2-fluoro-5-trifluoromethyl-phenyl)-ureido]-phenyl}-1-methyl-1H-pyrazole-4-carboxylic acid amide], for which the IC50 was less than 100 nM.

Consider `Cn1nc(-c2ccc(NC(=O)Nc3cc(C(F)(F)F)ccc3Cl)cc2)c(C(N)=O)c1N` [Example 3, 5-Amino-3-{4-[3-(2-chloro-5-trifluoromethyl-phenyl)-ureido]-phenyl}-1-methyl-1H-pyrazole-4-carboxylic acid amide], for which the IC50 is less than 100 nM.

`Cn1nc(-c2ccc(NC(=O)Nc3cc(C(F)(F)F)cc(C(F)(F)F)c3)cc2)c(C(N)=O)c1N` [Example 4, 5-Amino-3-{4-[3-(bis-3,5-trifluoromethyl-phenyl)-ureido]-phenyl}-1-methyl-1H-pyrazole-4-carboxylic acid amide]: the IC50 is 100 to 1000 nM.

On to `Cn1nc(-c2ccc(NC(=O)Nc3ccc4ccccc4c3)cc2)c(C(N)=O)c1N` [Example 5, 5-Amino-1-methyl-3-[4-(3-naphthalen-2-yl-ureido)-phenyl]-1H-pyrazole-4-carboxylic acid amide], for which the IC50 was 100 to 1000 nM.

As for `Cn1nc(-c2ccc(NC(=O)Nc3cccc(Cl)c3)cc2)c(C(N)=O)c1N` [Example 6, 5-Amino-3-{4-[3-(3-chloro-phenyl)-ureido]-phenyl}-1-methyl-1H-pyrazole-4-carboxylic acid amide], the IC50 is 1000 to 10000 nM.

Turning to `Cn1nc(-c2ccc(NC(=O)Nc3cc(Cl)ccc3Cl)cc2)c(C(N)=O)c1N` [Example 7, 5-Amino-3-{4-[3-(2,5-dichloro-phenyl)-ureido]-phenyl}-1-methyl-1H-pyrazole-4-carboxylic acid amide], the IC50 is less than 100 nM.

For `Cn1nc(-c2ccc(NC(=O)Nc3cccc4ccccc34)cc2)c(C(N)=O)c1N` [Example 8, 5-Amino-1-methyl-3-[4-(3-naphthalen-1-yl-ureido)-phenyl]-1H-pyrazole-4-carboxylic acid amide], the IC50 is 1000 to 10000 nM.

On to `Cn1nc(-c2ccc(NC(=O)Nc3cccc(C(F)(F)F)c3)cc2)c(C(N)=O)c1N` [Example 9, 5-Amino-1-methyl-3-{4-[3-(3-trifluoromethyl-phenyl)-ureido]-phenyl}-1H-pyrazole-4-carboxylic acid amide], for which the IC50 was less than 100 nM.

On to `Cn1nc(-c2ccc(NC(=O)Nc3ccc(-c4ccccc4)cc3)cc2)c(C(N)=O)c1N` [Example 10, 5-Amino-3-[4-(3-biphenyl4-yl-ureido)-phenyl]-1-methyl-1H-pyrazole-4-carboxylic acid amide], for which the IC50 is 100 to 1000 nM.

For `Cn1nc(-c2ccc(NC(=O)Nc3c(F)cccc3F)cc2)c(C(N)=O)c1N` [Example 11, 5-Amino-3-{4-[3-(2,6-difluoro-phenyl)-ureido]-phenyl}-1-methyl-1H-pyrazole-4-carboxylic acid amide], the IC50 was greater than 10000 nM.

With `Cn1nc(-c2ccc(NC(=O)Nc3ccc4c(c3)OCO4)cc2)c(C(N)=O)c1N` [Example 12, 5-Amino-3-[4-(3-benzo[1,3]dioxol-5-yl-ureido)-phenyl]-1-methyl-1H-pyrazole-4-carboxylic acid amide], the IC50 was 1000 to 10000 nM.

For the compound `Cc1ccccc1NC(=O)Nc1ccc(-c2nn(C)c(N)c2C(N)=O)cc1` [Example 13, 5-Amino-1-methyl-3-[4-(3-o-tolyl-ureido)-phenyl]-1H-pyrazole-4-carboxylic acid amide], the IC50 was 1000 to 10000 nM.

For `Cc1cccc(NC(=O)Nc2ccc(-c3nn(C)c(N)c3C(N)=O)cc2)c1` [Example 14, 5-Amino-1-methyl-3-[4-(3-m-tolyl-ureido)-phenyl]-1H-pyrazole-4-carboxylic acid amide], the IC50 was 100 to 1000 nM.

On to `Cn1nc(-c2ccc(NC(=O)Nc3cc(F)ccc3F)cc2)c(C(N)=O)c1N` [Example 15, 5-Amino-3-{4-[3-(2,5-difluoro-phenyl)-ureido]-phenyl}-1-methyl-1H-pyrazole-4-carboxylic acid amide], for which the IC50 was 1000 to 10000 nM.

In the case of `COc1ccc(NC(=O)Nc2ccc(-c3nn(C)c(N)c3C(N)=O)cc2)c(OC)c1` [Example 16, 5-amino-3-{4-[3-(2,4-dimethoxy-phenyl)-ureido]-phenyl}-1-methyl-1H-pyrazole-4-carboxylic acid amide], the IC50 is 1000 to 10000 nM.

Turning to `Cn1nc(-c2ccc(NC(=O)Nc3ccc(Oc4ccccc4)cc3)cc2)c(C(N)=O)c1N` [Example 17, 5-Amino-1-methyl-3-{4-[3-(4phenoxy-phenyl)-ureido]-phenyl}-1H-pyrazole-4-carboxylic acid amide], the IC50 is 100 to 1000 nM.

For the compound `CC(C)(C)n1nc(-c2ccc(NC(=O)Nc3cc(C(F)(F)F)ccc3Cl)cc2)c(C(N)=O)c1N` [Example 18, 5-Amino-1-tert-butyl-3-{4-[3-(2-chloro-5-trifluoromethyl-phenyl)-ureido]-phenyl}-1H-pyrazole-4-carboxylic acid amide], the IC50 was less than 100 nM.

With `CC(C)(C)n1nc(-c2ccc(NC(=O)Nc3cc(C(F)(F)F)cc(C(F)(F)F)c3)cc2)c(C(N)=O)c1N` [Example 19, 5-Amino-3-{4-[3-(bis-3,5-trifluoromethyl-phenyl)-ureido]-phenyl}-1-tert-butyl-1H-pyrazole-4-carboxylic acid amide], the IC50 is less than 100 nM.

For `CC(C)(C)n1nc(-c2ccc(NC(=O)Nc3cccc4ccccc34)cc2)c(C(N)=O)c1N` [Example 20, 5-Amino-1-tert-butyl-3-[4-(3-naphthalen-1-yl-ureido)-phenyl]-1H-pyrazole-4-carboxylic acid amide], the IC50 was 100 to 1000 nM.

`CC(C)(C)n1nc(-c2ccc(NC(=O)Nc3cccc(Cl)c3)cc2)c(C(N)=O)c1N` [Example 21, 5-Amino-1-tert-butyl-3-{4-[3-(3-chloro-phenyl)-ureido]-phenyl}-1H-pyrazole-4-carboxylic acid amide]: the IC50 was less than 100 nM.

Consider `CC(C)(C)n1nc(-c2ccc(NC(=O)Nc3cc(Cl)ccc3Cl)cc2)c(C(N)=O)c1N` [Example 22, 5-Amino-1-tert-butyl-3-{4-[3-(2,5-dichloro-phenyl)-ureido]-phenyl}-1H-pyrazole-4-carboxylic acid amide], for which the IC50 is 100 to 1000 nM.

`CC(C)(C)n1nc(-c2ccc(NC(=O)Nc3ccc4ccccc4c3)cc2)c(C(N)=O)c1N` [Example 23, 5-Amino-1-tert-butyl-3-[4-(3-naphthalen-2-yl-ureido)-phenyl]-1H-pyrazole-4-carboxylic acid amide]: the IC50 was less than 100 nM.

With `CC(C)(C)n1nc(-c2ccc(NC(=O)Nc3cccc(C(F)(F)F)c3)cc2)c(C(N)=O)c1N` [Example 24, 5-Amino-1-tert-butyl-3-{4-[3-(3-trifluoromethyl-phenyl)-ureido]-phenyl}-1H-pyrazole-4-carboxylic acid amide], the IC50 was less than 100 nM.

Turning to `CC(C)(C)n1nc(-c2ccc(NC(=O)Nc3ccc(-c4ccccc4)cc3)cc2)c(C(N)=O)c1N` [Example 25, 5-Amino-3-[4-(3-biphenyl-4-yl-ureido)-phenyl]-1-tert-butyl-1H-pyrazole-4-carboxylic acid amide], the IC50 was 100 to 1000 nM.

With `CC(C)(C)n1nc(-c2ccc(NC(=O)Nc3c(F)cccc3F)cc2)c(C(N)=O)c1N` [Example 26, 5-Amino-1-tert-butyl-3-{4-[3-(2,6-difluoro-phenyl)-ureido]-phenyl}-1H-pyrazole-4-carboxylic acid amide], the IC50 is 1000 to 10000 nM.

As for `CC(C)(C)n1nc(-c2ccc(NC(=O)Nc3ccc4c(c3)OCO4)cc2)c(C(N)=O)c1N` [Example 27, 5-Amino-3-[4-(3-benzo[1,3]dioxol-5-yl-ureido)-phenyl]-1-tert-butyl-1H-pyrazole-4-carboxylic acid amide], the IC50 was 100 to 1000 nM.

As to `Cc1cccc(NC(=O)Nc2ccc(-c3nn(C(C)(C)C)c(N)c3C(N)=O)cc2)c1` [Example 29, 5-Amino-1-tert-butyl-3-[4-(3-m-tolyl-ureido)-phenyl]-1H-pyrazole-4-carboxylic acid amide], the IC50 is less than 100 nM.

Regarding `CC(C)(C)n1nc(-c2ccc(NC(=O)Nc3cc(F)ccc3F)cc2)c(C(N)=O)c1N` [Example 30, 5-Amino-1-tert-butyl-3-{4-[3-(2,5-difluoro-phenyl)-ureido]-phenyl}-1H-pyrazole-4-carboxylic acid amide], the IC50 was 100 to 1000 nM.

For the compound `COc1ccc(NC(=O)Nc2ccc(-c3nn(C(C)(C)C)c(N)c3C(N)=O)cc2)c(OC)c1` [Example 31, 5-Amino-1-tert-butyl-3-{4-[3-(2,4-dimethoxyo-phenyl)-ureido]-phenyl}-1H-pyrazole-4-carboxylic acid amide], the IC50 was 1000 to 10000 nM.

In the case of `CC(C)(C)n1nc(-c2ccc(NC(=O)Nc3ccc(Oc4ccccc4)cc3)cc2)c(C(N)=O)c1N` [Example 32, 5-Amino-1-tert-butyl-3-{4-[3-(4-phenoxy-phenyl)-ureido]-phenyl}-1H-pyrazole-4-carboxylic acid amide], the IC50 is 100 to 1000 nM.

For the compound `NC(=O)c1c(-c2ccc(NC(=O)Nc3cc(C(F)(F)F)ccc3F)cc2)n[nH]c1N` [Example 33, 5-Amino-3-{4-[3-2-(fluoro-5-trifluoromethyl-phenyl)-ureido]-phenyl}-1H-pyrazole-4-carboxylic acid amide], the IC50 was less than 100 nM.

Source of the values: patent publication US7307097B2, “Chemical compounds” (SmithKline Beechman Corporation, priority 2001, dated 2007).
